According to publication PMC7156458, “Synthetic biology based construction of biological activity-related library of fungal decalin-containing diterpenoid pyrones” (Nature Communications, 2020):

Molecular target: Aβ42 (Homo sapiens, UniProt P05067)
Test: Th-T (thioflavin-T) assay of Aβ42 aggregation
Assay type: biochemical
Conditions: for Th-T assay plate reading, mean of three wells (Supplementary Fig. 47): source data, Ab alone and No Ab as controls

Chain of Aβ42 (P05067 672-713): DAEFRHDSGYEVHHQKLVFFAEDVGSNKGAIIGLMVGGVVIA

Th-T fluorescence, mean of three wells (Aβ42 aggregation time course, reading M117): 3.0425
Th-T fluorescence, mean of three wells (Aβ42 aggregation time course, reading M118): 3.0715
Th-T fluorescence, mean of three wells (Aβ42 aggregation time course, reading M119): 3.036
Th-T fluorescence, mean of three wells (Aβ42 aggregation time course, reading M120): 3.042
Th-T fluorescence, mean of three wells (Aβ42 aggregation time course, reading M121): 3.063
Th-T fluorescence, mean of three wells (Aβ42 aggregation time course, reading M122): 3.055
Th-T fluorescence, mean of three wells (Aβ42 aggregation time course, reading M123): 3.062
Th-T fluorescence, mean of three wells (Aβ42 aggregation time course, reading M124): 3.061
Th-T fluorescence, mean of three wells (Aβ42 aggregation time course, reading M125): 3.081
Th-T fluorescence, mean of three wells (Aβ42 aggregation time course, reading M126): 3.018
Th-T fluorescence, mean of three wells (Aβ42 aggregation time course, reading M127): 3.038
Th-T fluorescence, mean of three wells (Aβ42 aggregation time course, reading M128): 3.027
Th-T fluorescence, mean of three wells (Aβ42 aggregation time course, reading M129): 3.02
Th-T fluorescence, mean of three wells (Aβ42 aggregation time course, reading M130): 3.02
Th-T fluorescence, mean of three wells (Aβ42 aggregation time course, reading M131): 3.032
Th-T fluorescence, mean of three wells (Aβ42 aggregation time course, reading M132): 3.01
Th-T fluorescence, mean of three wells (Aβ42 aggregation time course, reading M133): 3.061
Th-T fluorescence, mean of three wells (Aβ42 aggregation time course, reading M134): 3.045
Th-T fluorescence, mean of three wells (Aβ42 aggregation time course, reading M135): 3.053
Th-T fluorescence, mean of three wells (Aβ42 aggregation time course, reading M136): 3.034
Th-T fluorescence, mean of three wells (Supplementary Fig. 47, reading M137): 3.021
Th-T fluorescence, mean of three wells (Supplementary Fig. 47, reading M138): 3.036
Th-T fluorescence, mean of three wells (Supplementary Fig. 47, reading M139): 3.036
Th-T fluorescence, mean of three wells (Supplementary Fig. 47, reading M140): 3.0121
Th-T fluorescence, mean of three wells (Supplementary Fig. 47, reading M141): 3.01
Th-T fluorescence, mean of three wells (Supplementary Fig. 47, reading M142): 2.999
Th-T fluorescence, mean of three wells (Supplementary Fig. 47, reading M143): 3.017
Th-T fluorescence, mean of three wells (Supplementary Fig. 47, reading M144): 3.0125
Th-T fluorescence, mean of three wells (Supplementary Fig. 47, reading M145): 3.0288
Th-T fluorescence, mean of three wells (Supplementary Fig. 47 source data, measurement M37 of time course): 3.017
Th-T fluorescence, mean of three wells (Supplementary Fig. 47 source data, measurement M38 of time course): 3.04
Th-T fluorescence, mean of three wells (Supplementary Fig. 47 source data, measurement M39 of time course): 3.05
Th-T fluorescence, mean of three wells (Supplementary Fig. 47 source data, measurement M40 of time course): 3.045
Th-T fluorescence, mean of three wells (Supplementary Fig. 47 source data, measurement M41 of time course): 3.085
Th-T fluorescence, mean of three wells (Supplementary Fig. 47 source data, measurement M42 of time course): 3.072
Th-T fluorescence, mean of three wells (Supplementary Fig. 47 source data, measurement M43 of time course): 3.079
Th-T fluorescence, mean of three wells (Supplementary Fig. 47 source data, measurement M44 of time course): 3.068
Th-T fluorescence, mean of three wells (Supplementary Fig. 47 source data, measurement M45 of time course): 3.111
Th-T fluorescence, mean of three wells (Supplementary Fig. 47 source data, measurement M46 of time course): 3.079
Th-T fluorescence, mean of three wells (Supplementary Fig. 47 source data, measurement M47 of time course): 3.097
Th-T fluorescence, mean of three wells (Supplementary Fig. 47 source data, measurement M48 of time course): 3.117
Th-T fluorescence, mean of three wells (Supplementary Fig. 47 source data, measurement M49 of time course): 3.11
Th-T fluorescence, mean of three wells (Supplementary Fig. 47 source data, measurement M50 of time course): 3.114
Th-T fluorescence, mean of three wells (Supplementary Fig. 47 source data, measurement M51 of time course): 3.119
Th-T fluorescence, mean of three wells (Supplementary Fig. 47 source data, measurement M52 of time course): 3.113
Th-T fluorescence, mean of three wells (Supplementary Fig. 47 source data, measurement M53 of time course): 3.12
Th-T fluorescence, mean of three wells (Supplementary Fig. 47 source data, measurement M54 of time course): 3.1191
Th-T fluorescence, mean of three wells (Supplementary Fig. 47 source data, measurement M55 of time course): 3.1238
Th-T fluorescence, mean of three wells (Supplementary Fig. 47 source data, measurement M56 of time course): 3.106
Th-T assay plate reading, mean of three wells (Supplementary Fig. 47) (measurement M1): 0.3106
Th-T assay plate reading, mean of three wells (Supplementary Fig. 47) (measurement M2): 0.3077
Th-T assay plate reading, mean of three wells (Supplementary Fig. 47) (measurement M3): 0.3313
Th-T assay plate reading, mean of three wells (Supplementary Fig. 47) (measurement M4): 0.3664
Th-T assay plate reading, mean of three wells (Supplementary Fig. 47) (measurement M5): 0.4514
Th-T assay plate reading, mean of three wells (Supplementary Fig. 47) (measurement M6): 0.4846
Th-T assay plate reading, mean of three wells (Supplementary Fig. 47) (measurement M7): 0.512
Th-T assay plate reading, mean of three wells (Supplementary Fig. 47) (measurement M8): 0.5981
Th-T assay plate reading, mean of three wells (Supplementary Fig. 47) (measurement M9): 0.6456
Th-T assay plate reading, mean of three wells (Supplementary Fig. 47) (measurement M10): 0.6881
Th-T assay plate reading, mean of three wells (Supplementary Fig. 47) (measurement M11): 0.7275
Th-T assay plate reading, mean of three wells (Supplementary Fig. 47) (measurement M12): 0.7567
Th-T assay plate reading, mean of three wells (Supplementary Fig. 47) (measurement M13): 0.7872
Th-T assay plate reading, mean of three wells (Supplementary Fig. 47) (measurement M14): 0.8218
Th-T assay plate reading, mean of three wells (Supplementary Fig. 47) (measurement M15): 0.8797
Th-T assay plate reading, mean of three wells (Supplementary Fig. 47) (measurement M16): 0.9731
Th-T fluorescence, mean of three wells (reading M17, Supplementary Fig. 47 source data): 1.192
Th-T fluorescence, mean of three wells (reading M18, Supplementary Fig. 47 source data): 1.512
Th-T fluorescence, mean of three wells (reading M19, Supplementary Fig. 47 source data): 1.858
Th-T fluorescence, mean of three wells (reading M20, Supplementary Fig. 47 source data): 2.193
Th-T fluorescence, mean of three wells (reading M21, Supplementary Fig. 47 source data): 2.479
Th-T fluorescence, mean of three wells (reading M22, Supplementary Fig. 47 source data): 2.615
Th-T fluorescence, mean of three wells (reading M23, Supplementary Fig. 47 source data): 2.7089
Th-T fluorescence, mean of three wells (reading M24, Supplementary Fig. 47 source data): 2.736
Th-T fluorescence, mean of three wells (reading M25, Supplementary Fig. 47 source data): 2.775
Th-T fluorescence, mean of three wells (reading M26, Supplementary Fig. 47 source data): 2.797
Th-T fluorescence, mean of three wells (reading M27, Supplementary Fig. 47 source data): 2.826
Th-T fluorescence, mean of three wells (reading M28, Supplementary Fig. 47 source data): 2.834
Th-T fluorescence, mean of three wells (reading M29, Supplementary Fig. 47 source data): 2.861
Th-T fluorescence, mean of three wells (reading M30, Supplementary Fig. 47 source data): 2.901
Th-T fluorescence, mean of three wells (reading M31, Supplementary Fig. 47 source data): 2.9009
Th-T fluorescence, mean of three wells (reading M32, Supplementary Fig. 47 source data): 2.941
Th-T fluorescence, mean of three wells (reading M33, Supplementary Fig. 47 source data): 2.954
Th-T fluorescence, mean of three wells (reading M34, Supplementary Fig. 47 source data): 2.9825
Th-T fluorescence, mean of three wells (reading M35, Supplementary Fig. 47 source data): 2.976
Th-T fluorescence, mean of three wells (reading M36, Supplementary Fig. 47 source data): 3.001
Th-T fluorescence, mean of three wells (time course, reading M57): 3.126
Th-T fluorescence, mean of three wells (time course, reading M58): 3.154
Th-T fluorescence, mean of three wells (time course, reading M59): 3.098
Th-T fluorescence, mean of three wells (time course, reading M60): 3.135
Th-T fluorescence, mean of three wells (time course, reading M61): 3.131
Th-T fluorescence, mean of three wells (time course, reading M62): 3.132
Th-T fluorescence, mean of three wells (time course, reading M63): 3.122
Th-T fluorescence, mean of three wells (time course, reading M64): 3.115
Th-T fluorescence, mean of three wells (time course, reading M65): 3.114
Th-T fluorescence, mean of three wells (time course, reading M66): 3.129
Th-T fluorescence, mean of three wells (time course, reading M67): 3.159
Th-T fluorescence, mean of three wells (time-course reading M97, Supplementary Fig. 47 source data): 3.103
Th-T fluorescence, mean of three wells (time-course reading M98, Supplementary Fig. 47 source data): 3.123
Th-T fluorescence, mean of three wells (time-course reading M99, Supplementary Fig. 47 source data): 3.102
Th-T fluorescence, mean of three wells (time-course reading M100, Supplementary Fig. 47 source data): 3.074
Th-T fluorescence, mean of three wells (time-course reading M101, Supplementary Fig. 47 source data): 3.118
Th-T fluorescence, mean of three wells (time-course reading M102, Supplementary Fig. 47 source data): 3.1
Th-T fluorescence, mean of three wells (time-course reading M103, Supplementary Fig. 47 source data): 3.088
Th-T fluorescence, mean of three wells (time-course reading M104, Supplementary Fig. 47 source data): 3.101
Th-T fluorescence, mean of three wells (time-course reading M105, Supplementary Fig. 47 source data): 3.114
Th-T fluorescence, mean of three wells (time-course reading M106, Supplementary Fig. 47 source data): 3.076
Th-T fluorescence, mean of three wells (time-course reading M107, Supplementary Fig. 47 source data): 3.094
Th-T fluorescence, mean of three wells (time-course reading M108, Supplementary Fig. 47 source data): 3.063
Th-T fluorescence, mean of three wells (time-course reading M109, Supplementary Fig. 47 source data): 3.057
Th-T fluorescence, mean of three wells (time-course reading M110, Supplementary Fig. 47 source data): 3.049
Th-T fluorescence, mean of three wells (time-course reading M111, Supplementary Fig. 47 source data): 3.101
Th-T fluorescence, mean of three wells (time-course reading M112, Supplementary Fig. 47 source data): 3.097
Th-T fluorescence, mean of three wells (time-course reading M113, Supplementary Fig. 47 source data): 3.03
Th-T fluorescence, mean of three wells (time-course reading M114, Supplementary Fig. 47 source data): 3.07
Th-T fluorescence, mean of three wells (time-course reading M115, Supplementary Fig. 47 source data): 3.098
Th-T fluorescence, mean of three wells (time-course reading M116, Supplementary Fig. 47 source data): 3.06
SMILES: C=C1CC[C@H]2[C@]3(C)C[C@H](C=C(C)C)O[C@H]3CC[C@]2(C)[C@@H]1Cc1c(O)c(C)c(C)oc1=O [Compound 6, subglutinol B]
